Experimental data from patent US11589603B2, “Powdered nutritional product containing branched-chain amino acids and a sugar alcohol” (Abbott Laboratories, priority 2015, dated 2023).

Assays:
Type in all cases: physicochemical
[1] = Example 5: effect of inositol isomers on dissolution of L-leucine, LC/UV of filtrate; conditions: for Leu dissolved at 30 seconds (g/16 oz.) / Leu dissolved at 60 seconds (% of total Leu) / Leu dissolved at 60 seconds (g/16 oz.): 3.50 g L-leucine with 0.1 g/16 oz. inositol isomer, water 21° C., 400 rpm
Method: The LC/UV system used to perform the tests comprised the following: 1) Column: YMC ODS-AQ, 4.6 x 250 mm, 5 μm, Waters […]; 2) Mobile Phase: Milli-Q Plus water; 3) Flow Rate: 0.4 mL/minute; 4) Temperature: 40° C.; 5) Detection: UV at 192 nm; 6) Injection: 2 μL of filtrate; and 7) Run Time: 20 minutes.

[2] = Example 3: aqueous dissolution of powdered branched-chain amino acid blend (first material) with varying myo-inositol, LC/UV of filtrate; conditions: for Dissolved amino acid (g per 16 oz.): 7.00 g BCAA blend, water 21° C., 400 rpm
Method: Example 3 evaluates the effect that varying the myo-inositol concentration has on the aqueous dissolution of branched-chain amino acids. Two branched-chain amino acid materials were tested. The first material tested was 7.00 grams of a powdered branched-chain amino acid blend comprising 50 wt. % leucine, 25 wt. % isoleucine, and 25 wt. % valine. The second material tested was 3.5 grams of powdered leucine. Each material was tested with varying levels of powdered myo-inositol, expressed as a percentage of 17.6 grams (e.g., a serving of powdered nutritional product). For example, 1% myo-inositol is 0.176 grams, 2% myo-inositol is 0.352 grams, and so forth. The branched-chain amino acid material and the specified amount of myo-inositol were added to 16 fluid ounces of Milli-Q Plus water at 21° C. and stirred at 400 rpm. After 30 seconds and 60 seconds of stirring, an aliquot was obtained and filtered through a 0.45 μm PTFE membrane (Pall Life Sciences, Acrodisc CR 25, P/N 4501), and the filtrate of the first material was tested for valine, isoleucine, and leucine using the LC/UV method described below, while the filtrate of the second material was tested for leucine using the same LC/UV method. The test results for the first material tested are shown in Table 3, while the test results for the second material tested are shown in Table 4.
(§1) The LC/UV system used to perform the tests comprised the following: 1) Column: YMC ODS-AQ, 4.6 x 250 mm, 5 μm, Waters P/N AQ12S052546WT; 2) Mobile Phase: Milli-Q Plus water; 3) Flow Rate: 0.4 mL/minute; 4) Temperature: 40° C.; 5) Detection: UV at 192 nm; 6) Injection: 2 μL of filtrate; and 7) Run Time: 20 minutes.

[3] = Example 4: aqueous dissolution of branched-chain amino acids in a powdered nutritional product with varying myo-inositol, LC/UV of filtrate; conditions: 17.6 g powdered nutritional product, water 21° C., 400 rpm
Method: as §1
Example 4 evaluates the effect that myo-inositol concentration has on the aqueous dissolution of branched-chain amino acids (valine, isoleucine, and leucine) in a powdered nutritional product. One serving (17.6 grams) of the powdered nutritional product contains 7.00 grams of a branched-chain amino acid blend comprising 50 wt. % leucine, 25 wt. % isoleucine, and 25 wt. % valine. A serving of the powdered nutritional product with a specified amount of myo-inositol was added to 16 fluid ounces of Milli-Q Plus water at 21° C. and stirred at 400 rpm. At each specified time point, an aliquot was obtained and filtered through a 0.45 μm PTFE membrane (Pall Life Sciences, Acrodisc CR 25, P/N 4501), and the filtrate was tested for valine, isoleucine, and leucine using the LC/UV method as described in Example 3.

[4] = myo-inositol 0% of 17.6 g, 30 seconds
[5] = myo-inositol 0% of 17.6 g, 60 seconds
[6] = myo-inositol 1% of 17.6 g, 30 seconds
[7] = myo-inositol 1% of 17.6 g, 60 seconds
[8] = myo-inositol 2% of 17.6 g, 30 seconds
[9] = myo-inositol 2% of 17.6 g, 60 seconds
[10] = myo-inositol 4% of 17.6 g, 30 seconds
[11] = myo-inositol 4% of 17.6 g, 60 seconds
[12] = myo-inositol 8% of 17.6 g, 30 seconds
[13] = myo-inositol 8% of 17.6 g, 60 seconds

| Compound | Leu dissolved at 30 seconds (g/16 oz.) [1] [g/16 oz.] | Leu dissolved at 60 seconds (% of total Leu) [1] | Leu dissolved at 60 seconds (g/16 oz.) [1] [g/16 oz.] | Dissolved amino acid (g per 16 oz.) [2, 4] [g per 16 oz.] | Dissolved amino acid (g per 16 oz.) [2, 5] [g per 16 oz.] | Dissolved amino acid (g per 16 oz.) [2, 6] [g per 16 oz.] | Dissolved amino acid (g per 16 oz.) [2, 7] [g per 16 oz.] | Dissolved amino acid (g per 16 oz.) [2, 8] [g per 16 oz.] | Dissolved amino acid (g per 16 oz.) [2, 9] [g per 16 oz.] | Dissolved amino acid (g per 16 oz.) [2, 10] [g per 16 oz.] | Dissolved amino acid (g per 16 oz.) [2, 11] [g per 16 oz.] | Dissolved amino acid (g per 16 oz.) [2, 12] [g per 16 oz.] | Dissolved amino acid (g per 16 oz.) [2, 13] [g per 16 oz.] | Dissolved amino acid (g per 16 oz.) ([3]; myo-inositol 0%, 30 seconds) | Dissolved amino acid (g per 16 oz.) ([3]; myo-inositol 0%, 60 seconds) | Dissolved amino acid (g per 16 oz.) ([3]; myo-inositol 0%, 90 seconds) | Dissolved amino acid (g per 16 oz.) ([3]; myo-inositol 0%, 240 seconds) | Dissolved amino acid (g per 16 oz.) ([3]; myo-inositol 0%, 600 seconds) | Dissolved amino acid (g per 16 oz.) ([3]; myo-inositol 1%, 30 seconds) | Dissolved amino acid (g per 16 oz.) ([3]; myo-inositol 1%, 60 seconds) | other results |
| --- | --- | --- | --- | --- | --- | --- | --- | --- | --- | --- | --- | --- | --- | --- | --- | --- | --- | --- | --- | --- | --- |
| OC1C(O)C(O)C(O)C(O)C1O (stereo not drawn) [epi-inositol] | 0.626 ± 0.223 | 33.2 ± 10.6 % of total Leu | 1.16 ± 0.37 |  |  |  |  |  |  |  |  |  |  |  |  |  |  |  |  |  | enhancement of dissolution rate of L-leucine by inositol isomer ([1]; 0.1 g isomer, 3.50 g L-leucine): most enhanced |
| OC1C(O)C(O)C(O)C(O)C1O [L-chiro-inositol] | 0.472 | 24.2 % of total Leu | 0.848 |  |  |  |  |  |  |  |  |  |  |  |  |  |  |  |  |  |  |
| CC[C@H](C)[C@H](N)C(=O)O [Isoleucine, L-Isoleucine] |  |  |  | 0.237 | 0.495 | 0.504 | 0.908 | 0.337 | 0.714 | 0.416 | 0.791 | 0.546 | 0.972 | 0.978 | 1.36 | 1.50 | 1.71 | 1.74 | 1.09 | 1.39 | Dissolved amino acid (g per 16 oz.) ([3]; myo-inositol 1%, 90 seconds): 1.51 g per 16 oz.; Dissolved amino acid (g per 16 oz.) ([3]; myo-inositol 1%, 240 seconds): 1.71 g per 16 oz.; Dissolved amino acid (g per 16 oz.) ([3]; myo-inositol 1%, 600 seconds): 1.71 g per 16 oz.; Dissolved amino acid (g per 16 oz.) ([3]; myo-inositol 2%, 30 seconds): 1.07 g per 16 oz.; Dissolved amino acid (g per 16 oz.) ([3]; myo-inositol 2%, 60 seconds): 1.33 g per 16 oz.; Dissolved amino acid (g per 16 oz.) ([3]; myo-inositol 2%, 90 seconds): 1.46 g per 16 oz.; Dissolved amino acid (g per 16 oz.) ([3]; myo-inositol 2%, 240 seconds): 1.66 g per 16 oz.; Dissolved amino acid (g per 16 oz.) ([3]; myo-inositol 2%, 600 seconds): 1.70 g per 16 oz.; Dissolved amino acid (g per 16 oz.) ([3]; myo-inositol 4%, 30 seconds): 1.14 g per 16 oz.; Dissolved amino acid (g per 16 oz.) ([3]; myo-inositol 4%, 60 seconds): 1.39 g per 16 oz.; Dissolved amino acid (g per 16 oz.) ([3]; myo-inositol 4%, 90 seconds): 1.52 g per 16 oz.; Dissolved amino acid (g per 16 oz.) ([3]; myo-inositol 4%, 240 seconds): 1.70 g per 16 oz.; Dissolved amino acid (g per 16 oz.) ([3]; myo-inositol 4%, 600 seconds): 1.72 g per 16 oz.; Dissolved amino acid (g per 16 oz.) ([3]; myo-inositol 8%, 30 seconds): 1.09 g per 16 oz.; Dissolved amino acid (g per 16 oz.) ([3]; myo-inositol 8%, 60 seconds): 1.38 g per 16 oz.; Dissolved amino acid (g per 16 oz.) ([3]; myo-inositol 8%, 90 seconds): 1.48 g per 16 oz.; Dissolved amino acid (g per 16 oz.) ([3]; myo-inositol 8%, 240 seconds): 1.72 g per 16 oz.; Dissolved amino acid (g per 16 oz.) ([3]; myo-inositol 8%, 600 seconds): 1.74 g per 16 oz. |
| CC(C)[C@H](N)C(=O)O [Valine, L-Valine] |  |  |  | 0.401 | 0.730 | 0.432 | 0.690 | 0.550 | 1.01 | 0.564 | 0.924 | 0.797 | 1.29 | 1.30 | 1.54 | 1.62 | 1.69 | 1.70 | 1.39 | 1.59 | valine/myo-inositol correlation on a molar basis, slope of plot (FIG. 2) ([2]; first material, 30 second time point): one valine molecule dissolves for every two molecules of myo-inositol added; Dissolved amino acid (g per 16 oz.) ([3]; myo-inositol 1%, 90 seconds): 1.65 g per 16 oz.; Dissolved amino acid (g per 16 oz.) ([3]; myo-inositol 1%, 240 seconds): 1.72 g per 16 oz.; Dissolved amino acid (g per 16 oz.) ([3]; myo-inositol 1%, 600 seconds): 1.72 g per 16 oz.; Dissolved amino acid (g per 16 oz.) ([3]; myo-inositol 2%, 30 seconds): 1.38 g per 16 oz.; Dissolved amino acid (g per 16 oz.) ([3]; myo-inositol 2%, 60 seconds): 1.55 g per 16 oz.; Dissolved amino acid (g per 16 oz.) ([3]; myo-inositol 2%, 90 seconds): 1.63 g per 16 oz.; Dissolved amino acid (g per 16 oz.) ([3]; myo-inositol 2%, 240 seconds): 1.70 g per 16 oz.; Dissolved amino acid (g per 16 oz.) ([3]; myo-inositol 2%, 600 seconds): 1.70 g per 16 oz.; Dissolved amino acid (g per 16 oz.) ([3]; myo-inositol 4%, 30 seconds): 1.44 g per 16 oz.; Dissolved amino acid (g per 16 oz.) ([3]; myo-inositol 4%, 60 seconds): 1.57 g per 16 oz.; Dissolved amino acid (g per 16 oz.) ([3]; myo-inositol 4%, 90 seconds): 1.64 g per 16 oz.; Dissolved amino acid (g per 16 oz.) ([3]; myo-inositol 4%, 240 seconds): 1.70 g per 16 oz.; Dissolved amino acid (g per 16 oz.) ([3]; myo-inositol 4%, 600 seconds): 1.70 g per 16 oz.; Dissolved amino acid (g per 16 oz.) ([3]; myo-inositol 8%, 30 seconds): 1.36 g per 16 oz.; Dissolved amino acid (g per 16 oz.) ([3]; myo-inositol 8%, 60 seconds): 1.56 g per 16 oz.; Dissolved amino acid (g per 16 oz.) ([3]; myo-inositol 8%, 90 seconds): 1.62 g per 16 oz.; Dissolved amino acid (g per 16 oz.) ([3]; myo-inositol 8%, 240 seconds): 1.69 g per 16 oz.; Dissolved amino acid (g per 16 oz.) ([3]; myo-inositol 8%, 600 seconds): 1.69 g per 16 oz. |
